Test results published in ChEMBL document CHEMBL5321238, “Small-molecule theranostics in Alzheimer's disease” (Eur J Med Chem, 2023).

Target: Amyloid-beta precursor protein (Homo sapiens) (UniProt P05067)
Assay: Binding affinity to amyloid beta (1 to 40 residues) (unknown origin) aggregation assessed as fold increase in fluorescence intensity

Sequence of Amyloid-beta precursor protein (Homo sapiens) (P05067 whole entry, the tested form may be a part): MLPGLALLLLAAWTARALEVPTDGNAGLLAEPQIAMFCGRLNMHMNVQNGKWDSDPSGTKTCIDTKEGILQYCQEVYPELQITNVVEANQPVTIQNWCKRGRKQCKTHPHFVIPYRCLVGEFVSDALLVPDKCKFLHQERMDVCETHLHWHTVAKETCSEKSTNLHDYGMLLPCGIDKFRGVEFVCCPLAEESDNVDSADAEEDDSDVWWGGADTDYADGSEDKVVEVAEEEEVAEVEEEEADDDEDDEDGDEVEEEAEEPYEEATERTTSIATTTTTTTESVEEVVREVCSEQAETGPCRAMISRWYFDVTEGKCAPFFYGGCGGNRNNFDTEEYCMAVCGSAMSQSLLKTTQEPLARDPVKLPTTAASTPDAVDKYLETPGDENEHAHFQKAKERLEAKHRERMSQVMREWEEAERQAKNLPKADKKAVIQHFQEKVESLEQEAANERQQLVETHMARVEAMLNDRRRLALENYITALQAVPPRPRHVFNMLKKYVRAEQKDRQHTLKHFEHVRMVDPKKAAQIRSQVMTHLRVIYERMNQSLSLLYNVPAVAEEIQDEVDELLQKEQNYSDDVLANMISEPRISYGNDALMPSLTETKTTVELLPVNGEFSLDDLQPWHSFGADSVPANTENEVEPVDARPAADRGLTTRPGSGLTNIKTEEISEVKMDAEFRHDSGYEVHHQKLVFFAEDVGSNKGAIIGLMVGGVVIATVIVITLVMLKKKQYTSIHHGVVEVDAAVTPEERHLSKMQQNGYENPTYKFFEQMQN

CN(C)c1ccc(/C=C/C2=CC(/C=C/c3ccc(N(C)C)cc3)=[O+][B-](F)(F)O2)cc1
fold change (FC): 70
